SMILES strings stand for the structures. pEC50, pIC50: −log10 of the molar value.

In one assay the target is α1β2γ2 GABAA receptor (Homo sapiens (Human), UniProt P14867+P47870). Particulars: for Emax at 10 µM: read-out: GABA (α1β2γ2) Qpatch in Ltk, % efficacy at 10 μM, Qpatch, Ltk cells, 10 μM compound, 2 μM GABA; for GABA (α1β2γ2) Qpatch in Ltk, % efficacy at 10 μM: Ltk cells, 10 μM compound, 2 μM GABA.
A further assay addresses α4β3δ GABAA receptor (Homo sapiens (Human), UniProt P28472+P48169). In words: Patch clamp electrophysiology of recombinant α4β3δ GABAA receptors (CHO cells). Particulars: read-out: GABA (α4β3δ) Qpatch in CHO, % efficacy at 10 μM.
In assay [1] the target is [35S]-TBPS binding, rat brain cortical membranes. Briefly: Steroid inhibition of [35S]-TBPS binding. To be noted: 3 nM [35S]-TBPS, in the presence of 5 μM GABA. As for the experimental part: Steroid Inhibition of TBPS Binding
[35S]-t-Butylbicylophorothionate (TBPS) binding assays using rat brain cortical membranes in the presence of 5 μM GABA has been described (Gee et al, J. Pharmacol. Exp. Ther. 1987, 241, 346-353; Hawkinson et al, Mol. Pharmacol. 1994, 46, 977-985; Lewin, A. H et al., Mol. Pharmacol. 1989, 35, 189-194).
Briefly, cortices are rapidly removed following decapitation of carbon dioxide-anesthetized Sprague-Dawley rats (200-250 g). The cortices are homogenized in 10 volumes of ice-cold 0.32 M sucrose using a glass/teflon homogenizer and centrifuged at 1500×g for 10 min at 4° C. The resultant supernatants are centrifuged at 10,000×g for 20 min at 4° C. to obtain the P2 pellets. The P2 pellets are resuspended in 200 mM NaCl/50 mM Na—K phosphate pH 7.4 buffer and centrifuged at 10,000×g for 10 min at 4° C. This washing procedure is repeated twice and the pellets are resuspended in 10 volumes of buffer. Aliquots (100 μL) of the membrane suspensions are incubated with 3 nM [^35S]-TBPS and 5 μL aliquots of test drug dissolved in dimethyl sulfoxide (DMSO) (final 0.5%) in the presence of 5 μM GABA. The incubation is brought to a final volume of 1.0 mL with buffer. Nonspecific binding is determined in the presence of 2 μM unlabeled TBPS and ranged from 15 to 25%. Following a 90 min incubation at room temp, the assays are terminated by filtration through glass fiber filters (Schleicher and Schuell No. 32) using a cell harvester (Brandel) and rinsed three times with ice-cold buffer. Filter bound radioactivity is measured by liquid scintillation spectrometry. Non-linear curve fitting of the overall data for each drug averaged for each concentration is done using Prism (GraphPad).
Various compounds are or can be screened to determine their potential as modulators of [^355]-TBPS binding in vitro. These assays are or can be performed in accordance with the above discussed procedures.

Procedure for α1β2γ2 GABAA receptor: (§1) LTK cells are stably transfected with the α1β2γ2 subunits of the GABA receptor and CHO cells are transiently transfected with the α4β3δ subunits via the Lipofecatamine method. Cells were passaged at a confluence of about 50-80% and then seeded onto 35 mm sterile culture dishes containing 2 ml culture complete medium without antibiotics or antimycotics.
(§2) Whole cell currents were measured with HEKA EPC-10 amplifiers using PatchMaster software or by using the high throughput QPatch platform (Sophion). […] In some cases 0.005% cremophor was also added. Intracellular (pipette) solution contained: KCl 130 mM, MgCl2 1 mM, Mg-ATP 5 mM, HEPES 10 mM, EGTA 5 mM, pH 7.2. During experiments, cells and solutions were maintained at room temperature (19° C.-30° C.). For manual patch clamp recordings, cell culture dishes were placed on the dish holder of the microscope and continuously perfused (1 ml/min) with bath solution. After formation of a Gigaohm seal between the patch electrodes and the cell (pipette resistance range: 2.5 MΩ-6.0 MΩ; seal resistance range: >1 GΩ) the cell membrane across the pipette tip was ruptured to assure electrical access to the cell interior (whole-cell patch-configuration). For experiments using the QPatch system, cells were transferred as suspension to the QPatch system in the bath solution and automated whole cell recordings were performed.
(§3) Cells were voltage clamped at a holding potential of −80 mV. For the analysis of test articles, GABA receptors were stimulated by 2 μM GABA after sequential pre-incubation of increasing concentrations of the test article. Pre-incubation duration was 30 s and the duration of the GABA stimulus was 2 s. Test articles were dissolved in DMSO to form stock solutions (10 mM). Test articles were diluted to 0.01, 0.1, 1, and 10 μM in bath solution. All concentrations of test articles were tested on each cell. The relative percentage potentiation was defined as the peak amplitude in response to GABA EC20 in the presence of the test article divided by the peak amplitude in response to GABA EC20 alone, multiplied by 100.
Procedure for α4β3δ GABAA receptor: as §1, §2, §3

For `C[C@H]1C[C@H]2[C@@H](CC[C@@H]3[C@@H]2CC[C@]2(C)[C@@H](C(=O)CN4CCOCC4)CC[C@@H]32)C[C@]1(C)O` [Entry 45], the Emax at 10 µM on α1β2γ2 GABAA receptor (LTK) is 10 to 100%; at α4β3δ GABAA receptor, > 500%.

With `C[C@@H]1COCCN1CC(=O)[C@H]1CC[C@H]2[C@@H]3CC[C@@H]4C[C@](C)(O)CC[C@@H]4[C@H]3CC[C@]12C` [Entry 7], the Emax at 10 µM on α1β2γ2 GABAA receptor (LTK) was 100 to 500%.

`CC(=O)N1CCN(CC(=O)[C@H]2CC[C@H]3[C@@H]4CC[C@H]5C[C@](C)(O)[C@@H](C)C[C@@H]5[C@H]4CC[C@]23C)CC1` [Entry 27]: the Emax at 10 µM at α1β2γ2 GABAA receptor (LTK) and at α4β3δ GABAA receptor was 100 to 500% throughout.

As to `C[C@@]1(O)CC[C@H]2[C@H](CC[C@@H]3[C@@H]2CC[C@]2(C)[C@@H](C(=O)CN4CCCOCC4)CC[C@@H]32)C1` [Entry 58], on α1β2γ2 GABAA receptor (LTK), the Emax at 10 µM was > 500%.

For `CC(=O)N1CCN(CC(=O)[C@H]2CC[C@H]3[C@@H]4CC[C@H]5C[C@](C)(O)CC[C@@H]5[C@H]4CC[C@]23C)CC1` [Entry 10], the Emax at 10 µM at α1β2γ2 GABAA receptor (LTK) lay within 100 to 500%.

Consider `C[C@]12CC[C@H]3[C@@H](CC[C@@H]4C[C@@](O)(C(F)F)CC[C@@H]43)[C@@H]1CC[C@@H]2C(=O)CN1CCN(S(C)(=O)=O)CC1` [Entry 56], for which the Emax at 10 µM at α1β2γ2 GABAA receptor (LTK) lay in the range of 100 to 500%.

Take `CC(=O)N1CCN(CC(=O)[C@H]2CC[C@H]3[C@@H]4CC[C@@H]5C[C@](C)(O)CC[C@@H]5[C@H]4CC[C@]23C)CC1` [Entry 17]: on α1β2γ2 GABAA receptor (LTK), the Emax at 10 µM was in the range of 100 to 500%.

Take `C[C@@H]1CN(CC(=O)[C@H]2CC[C@H]3[C@@H]4CC[C@@H]5C[C@](C)(O)CC[C@@H]5[C@H]4CC[C@]23C)CCO1` [Entry 6]: at α1β2γ2 GABAA receptor (LTK), the Emax at 10 µM was in the range of 100 to 500%.

`COC[C@@]1(O)CC[C@H]2[C@@H](CC[C@@H]3[C@@H]2CC[C@]2(C)[C@@H](C(=O)CN4CCOCC4)CC[C@@H]32)C1` [Entry 50]: at α1β2γ2 GABAA receptor (LTK), the Emax at 10 µM was 10 to 100%.

Regarding `C[C@@H]1CN(CC(=O)[C@H]2CC[C@H]3[C@@H]4CC[C@@H]5C[C@](C)(O)CC[C@@H]5[C@H]4CC[C@]23C)CCO1` [Entry 2], the pEC50 at α1β2γ2 GABAA receptor is 5.70 to 6.00. At α1β2γ2 GABAA receptor (LTK, read-out: GABAa alpha1 (α1β2γ2) Emax (%), potentiation of GABA EC20 (2 μM) current), the Emax lay in the range of 0 to 500%.

For `COC[C@@]1(O)CC[C@H]2[C@@H](CC[C@@H]3[C@@H]2CC[C@]2(C)[C@@H](C(=O)CN4CCN(S(C)(=O)=O)CC4)CC[C@@H]32)C1` [Entry 29], at α1β2γ2 GABAA receptor, the “GABA (α1β2γ2) Qpatch in Ltk, % efficacy at 10 μM” value is recorded as “B (“B” ≥100-500)”.

With `C[C@@]1(O)CC[C@H]2[C@H](CC[C@@H]3[C@@H]2CC[C@]2(C)[C@@H](C(=O)CN4CCC(O)C4)CC[C@@H]32)C1` (stereo partly drawn) [Entry 4], on α1β2γ2 GABAA receptor (LTK), the Emax at 10 µM lay in the range of 100 to 500%. For the same compound, the pIC50 in assay [1] is 6.30 to 7.00.

Regarding `C[C@@]1(O)CC[C@H]2[C@H](CC[C@@H]3[C@@H]2CC[C@]2(C)[C@@H](C(=O)CN4CCN(S(C)(=O)=O)CC4)CC[C@@H]32)C1` [Entry 8], the Emax at 10 µM at α1β2γ2 GABAA receptor (LTK) and on α4β3δ GABAA receptor was > 500% each time.

Regarding `C[C@@H]1C[C@H]2[C@@H](CC[C@@H]3[C@@H]2CC[C@]2(C)[C@@H](C(=O)CN4CCOCC4)CC[C@@H]32)C[C@]1(C)O` [Entry 47], the Emax at 10 µM on α1β2γ2 GABAA receptor (LTK) fell in the range of 10 to 100%.

`COC[C@@]1(O)CC[C@H]2[C@H](CC[C@@H]3[C@@H]2CC[C@]2(C)[C@@H](C(=O)CN4CCN(S(C)(=O)=O)CC4)CC[C@@H]32)C1` [Entry 30]: the Emax at 10 µM at α1β2γ2 GABAA receptor (LTK) was > 500%.

In the case of `COC[C@@]1(O)CC[C@H]2[C@@H](CC[C@@H]3[C@@H]2CC[C@]2(C)[C@@H](C(=O)CN4CCN(S(C)(=O)=O)CC4)CC[C@@H]32)C1` [Entry 57], on α1β2γ2 GABAA receptor, the “GABA (α1β2γ2) Qpatch in Ltk, % efficacy at 10 μM” value was “C (“C” ≥500)”.

For the origin of these results see US11912737B2, “19-nor neuroactive steroids and methods of use thereof” (Sage Therapeutics, Inc., priority 2013, dated 2024).
